The target in this test is triosephosphate isomerase from G. lamblia (GlTIM; dGlTIM) (Giardia duodenalis, UniProt P36186, C202A). In words: GDH-coupled TIM activity assay after […] h incubation at […] °C. Type of test: biochemical.

Drawing on publication PMC5727346 (International Journal for Parasitology: Drugs and Drug …, 2017), this text covers IC50 for one compound.

Compound `CCN(CC)C(=S)SSC(=S)N(CC)CC` [disulfiram, 1,1′,1″,1‴-[disulfanediylbis(carbonothioylnitrilo)]tetraethane] showed a concentration for half-maximal inhibition (IC50) of 6.6 µM.
